# Reference: ChEMBL document CHEMBL3885881, “DrugMatrix”
# Organism: Rattus norvegicus
# Experiment: DrugMatrix - Regimen: Daily Repeat
# Type: toxicity, organism-based, Sprague-Dawley
# Set-up: regimen Daily Repeat, gender Male, age 6-8 weeks
# Conditions: in vivo, po, route oral GAVAGE, […]; for ALKALINE PHOSPHATASE / ASPARTATE AMINOTRANSFERASE / BLOOD UREA NITROGEN / CARBON DIOXIDE / CHLORIDE / CHOLESTEROL / CREATINE PHOSPHOKINASE / CREATININE / GLUCOSE / LACTATE DEHYDROGENASE / LIPASE / PHOSPHORUS / POTASSIUM / SODIUM / TOTAL BILIRUBIN / TOTAL PROTEIN / URIC ACID / ALANINE AMINOTRANSFERASE / ALBUMIN: tissue Plasma; for BASOPHIL / EOSINOPHIL / ERYTHROCYTE COUNT / HEMATOCRIT / HEMOGLOBIN / LEUKOCYTE COUNT / LYMPHOCYTE / MEAN CORPUSCULAR HEMOGLOBIN / MEAN CORPUSCULAR HEMOGLOBIN CONCENTRATION / MEAN CORPUSCULAR VOLUME / MONOCYTE / NEUTROPHIL / PLATELET COUNT / ABSOLUTE BASOPHIL / ABSOLUTE EOSINOPHIL / ABSOLUTE LYMPHOCYTE / ABSOLUTE MONOCYTE / ABSOLUTE SEGMENTED NEUTROPHIL / NUCLEATED RED BLOOD CELLS: tissue Blood
# [1] = 23 mg/kg, 120 h, dose level Low, time 5 day
# [2] = 23 mg/kg, dose level High, time 28 day
# [3] = 64 mg/kg, 72 h, dose level M1, time 3 day
# [4] = 64 mg/kg, 120 h, dose level M1, time 5 day
smiles,measurement,setting,value
CC1=C(CC(=O)O)c2cc(F)ccc2/C1=C\c1ccc([S+](C)[O-])cc1 (stereo unspecified),ALKALINE PHOSPHATASE,[1],330 u/L
same,ASPARTATE AMINOTRANSFERASE,[1],79.33 u/L
same,BLOOD UREA NITROGEN,[1],14.33 mg/dL
same,CARBON DIOXIDE,[1],29.33 mmol/L
same,CHLORIDE,[1],100.67 MEQ/L
same,CHOLESTEROL,[1],85 mg/dL
same,CREATINE PHOSPHOKINASE,[1],210.67 u/L
same,CREATININE,[1],0.2 mg/dL
same,GLUCOSE,[1],156 mg/dL
same,LACTATE DEHYDROGENASE,[1],80 u/L
same,LIPASE,[1],11.67 u/L
same,PHOSPHORUS,[1],10.87 mg/dL
same,POTASSIUM,[1],5.36 MEQ/L
same,SODIUM,[1],146.07 MEQ/L
same,TOTAL BILIRUBIN,[1],0.17 mg/dL
same,TOTAL PROTEIN,[1],6.1 G/DL
same,URIC ACID,[1],0.77 mg/dL
same,BASOPHIL,[2],0.35%
same,EOSINOPHIL,[2],0.51%
same,ERYTHROCYTE COUNT,[2],8.35 x10E6/uL
same,HEMATOCRIT,[2],50.37%
same,HEMOGLOBIN,[2],16.23 G/DL
same,LEUKOCYTE COUNT,[2],13.2 x10E3/uL
same,LYMPHOCYTE,[2],85.99%
same,MEAN CORPUSCULAR HEMOGLOBIN,[2],19.47 pg
same,MEAN CORPUSCULAR HEMOGLOBIN CONCENTRATION,[2],32.25 G/DL
same,MEAN CORPUSCULAR VOLUME,[2],60.4 fL
same,MONOCYTE,[2],1.36%
same,NEUTROPHIL,[2],10.23%
same,PLATELET COUNT,[2],1228.2 x10E3/uL
same,ALANINE AMINOTRANSFERASE,[2],29 u/L
same,ALBUMIN,[2],3.94 G/DL
same,ALKALINE PHOSPHATASE,[2],227.1 u/L
same,ASPARTATE AMINOTRANSFERASE,[2],60.9 u/L
same,BLOOD UREA NITROGEN,[2],12.3 mg/dL
same,CHLORIDE,[2],106.6 MEQ/L
same,CHOLESTEROL,[2],55 mg/dL
same,CREATINE PHOSPHOKINASE,[2],162.4 u/L
same,CREATININE,[2],0.52 mg/dL
same,GLUCOSE,[2],134.2 mg/dL
same,PHOSPHORUS,[2],11.59 mg/dL
same,POTASSIUM,[2],6.38 MEQ/L
same,SODIUM,[2],153.3 MEQ/L
same,TOTAL BILIRUBIN,[2],0.22 mg/dL
same,TOTAL PROTEIN,[2],6.6 G/DL
same,ABSOLUTE BASOPHIL,[3],0 CELLS/uL
same,ABSOLUTE EOSINOPHIL,[3],0 CELLS/uL
same,ABSOLUTE LYMPHOCYTE,[3],23014.33 CELLS/uL
same,ABSOLUTE MONOCYTE,[3],921.67 CELLS/uL
same,ABSOLUTE SEGMENTED NEUTROPHIL,[3],4264 CELLS/uL
same,BASOPHIL,[3],0%
same,EOSINOPHIL,[3],0%
same,ERYTHROCYTE COUNT,[3],5.01 x10E6/uL
same,HEMATOCRIT,[3],31.37%
same,HEMOGLOBIN,[3],12.4 G/DL
same,LEUKOCYTE COUNT,[3],28.2 x10E3/uL
same,LYMPHOCYTE,[3],80.67%
same,MEAN CORPUSCULAR HEMOGLOBIN,[3],24.8 pg
same,MEAN CORPUSCULAR HEMOGLOBIN CONCENTRATION,[3],39.53 G/DL
same,MEAN CORPUSCULAR VOLUME,[3],62.6 fL
same,MONOCYTE,[3],3.33%
same,NEUTROPHIL,[3],16%
same,NUCLEATED RED BLOOD CELLS,[3],0 /100WBC
same,PLATELET COUNT,[3],1053 x10E3/uL
same,ALANINE AMINOTRANSFERASE,[3],55.67 u/L
same,ALBUMIN,[3],3.33 G/DL
same,ALKALINE PHOSPHATASE,[3],252 u/L
same,ASPARTATE AMINOTRANSFERASE,[3],68 u/L
same,BLOOD UREA NITROGEN,[3],9 mg/dL
same,CARBON DIOXIDE,[3],22.33 mmol/L
same,CHLORIDE,[3],105 MEQ/L
same,CHOLESTEROL,[3],84.33 mg/dL
same,CREATINE PHOSPHOKINASE,[3],173.33 u/L
same,CREATININE,[3],0.16 mg/dL
same,GLUCOSE,[3],162.67 mg/dL
same,LACTATE DEHYDROGENASE,[3],160.33 u/L
same,LIPASE,[3],10.33 u/L
same,PHOSPHORUS,[3],9.7 mg/dL
same,POTASSIUM,[3],6.43 MEQ/L
same,SODIUM,[3],144.3 MEQ/L
same,TOTAL BILIRUBIN,[3],0.17 mg/dL
same,TOTAL PROTEIN,[3],5.17 G/DL
same,URIC ACID,[3],1.37 mg/dL
same,ABSOLUTE BASOPHIL,[4],0 CELLS/uL
same,ABSOLUTE EOSINOPHIL,[4],0 CELLS/uL
same,ABSOLUTE LYMPHOCYTE,[4],11762.67 CELLS/uL
same,ABSOLUTE MONOCYTE,[4],305.67 CELLS/uL
same,ABSOLUTE SEGMENTED NEUTROPHIL,[4],2898.33 CELLS/uL
same,BASOPHIL,[4],0%
same,EOSINOPHIL,[4],0%
same,ERYTHROCYTE COUNT,[4],4.62 x10E6/uL
same,HEMATOCRIT,[4],30.03%
same,HEMOGLOBIN,[4],11.8 G/DL
same,LEUKOCYTE COUNT,[4],14.97 x10E3/uL
same,LYMPHOCYTE,[4],78.67%
same,MEAN CORPUSCULAR HEMOGLOBIN,[4],25.5 pg
same,MEAN CORPUSCULAR HEMOGLOBIN CONCENTRATION,[4],39.3 G/DL
same,MEAN CORPUSCULAR VOLUME,[4],64.87 fL
same,MONOCYTE,[4],2%
same,NEUTROPHIL,[4],19.33%
same,NUCLEATED RED BLOOD CELLS,[4],0 /100WBC
same,PLATELET COUNT,[4],1198 x10E3/uL
same,ALANINE AMINOTRANSFERASE,[4],48.67 u/L
same,ALBUMIN,[4],3.57 G/DL
same,ALKALINE PHOSPHATASE,[4],225.67 u/L
same,ASPARTATE AMINOTRANSFERASE,[4],64.67 u/L
same,BLOOD UREA NITROGEN,[4],11 mg/dL
same,CARBON DIOXIDE,[4],31.67 mmol/L
same,CHLORIDE,[4],101.33 MEQ/L
same,CHOLESTEROL,[4],88.33 mg/dL
same,CREATINE PHOSPHOKINASE,[4],237.33 u/L
same,CREATININE,[4],0.18 mg/dL
same,GLUCOSE,[4],174.67 mg/dL
same,LACTATE DEHYDROGENASE,[4],137.33 u/L
same,LIPASE,[4],10.67 u/L
same,PHOSPHORUS,[4],10.57 mg/dL
same,POTASSIUM,[4],5.08 MEQ/L
same,SODIUM,[4],146.77 MEQ/L
same,TOTAL BILIRUBIN,[4],0.13 mg/dL
same,TOTAL PROTEIN,[4],5.57 G/DL
same,URIC ACID,[4],0.5 mg/dL
